Source: US20070122903A1, “AMNIOTIC FLUID DERIVED CELLS” (priority 2005, published 2007)

Assays:
Type in all cases: cell-based, human
[1] = test system: cell line AFCA007 Clone A (AF-I); test: Differentiation of cells into multiple endocrine lineages (collagen type I/matrigel transwell culture with growth factors); details: 14 days, DMEM + 5% FBS
Description: Cells from the cell line AFCA007 Clone A (AF-I) at passage 8 were embedded in collagen type I (Becton Dickinson, CA) with 1% growth-factor reduced matrigel matrix (Becton Dickinson), and seeded into 6-well transwell insert at 5×10^5 cells per well. The bottom well was seeded with human aortic endothelial cells passage 6 (Cambrex. MD). Cells were cultured with DMEM medium supplemented with 5% FBS and growth factors, which includes Cyclopamine, bFGF, EGF, BMP4-7, Activin A, Exendin 4, FGF4, all-trans retinoic acid and γ-secretase inhibitors for 14 days. Cultures were fed every other day. […] Treatment of cells with BMPs at high concentration, 50 ng/ml, also up-regualted the GATA4 expression.

[2] = test system: Hes-1 expression (Notch pathway) in cell line AFCA007 (AF-I); test: Hes-1 expression by real-time PCR after notch pathway inhibition; details: range of concentrations, 3 to 5 days
Description: (§1) Cells were treated for three days, at the concentrations indicated. Changes in viability, corresponding to cytotoxicity were detected using an MTS assay, where a decrease in cell viability corresponds to a decrease in A490 nm.
(§2) Cells from the cell line AFCA007 (AF-I) at passage 8 were treated with a range of concentrations of the notch pathway inhibitor L-685,458 (Sigma, MO) for 3 to 5 days. The cytotoxcity of L-685,458 was determined by measuring cell viability by a MTS assay (Promega, WI). Real-time PCR analysis was performed to analyze Hes-1 expression after the treatment. […] No effect on cell viability, as determined by the MTS assay, was observed following L-685,458 treatment of up to 10 μM for 5 days (FIG. 17, panel b).

cell line AFCA007 (AF-I) = test: Cytotoxicity by MTS cell viability assay; details: up to 10 μM for 5 days
Description: as §1, §2

[3] = test system: cell line AFCA004 (E morphology); test: Treatment with PANC-1 conditioned medium in combination with growth factors, real-time PCR; details: PANC-1 conditioned medium plus growth factor; for somatostatin expression: after 14 days treatment
Description: Amniotic fluid-derived cells were obtained from a single donor and cultured for 12 days in conditioned media that was obtained from cultures of PANC-1 cells. The media was supplemented with the growth factors indicated. The levels of expression of HNF-3 beta and somatostatin were determined by real-time PCR. Human pancreas total RNA was included as a calibrator.
Cells from the cell line AFCA004 (E morphology) at passage 6 were seeded at 5×10^5 cells per well of 6-well culture plates and treated with conditioned medium from confluent PANC-1 cells (ATCC, VA) in combination with different growth factors. Basic FGF, EGF and combination of bFGF and EGF enhanced the expression of HNF-3 beta ˜100 fold over untreated cells. Basic FGF, EGF and BMPs also stimulated somatostatin expression after 14 days treatment (FIG. 16, panels a&b).

Compound	expression of HNF-3 beta over untreated cells [3]	somatostatin expression [3]	further results
CC(C)C[C@H](NC(=O)[C@H](Cc1ccccc1)C[C@@H](O)[C@H](Cc1ccccc1)NC(=O)OC(C)(C)C)C(=O)N[C@@H](Cc1ccccc1)C(N)=O [L-685,458]	–	–	expression of HNF-3 beta [1]: up-regulated; Hes-1 expression [2]: dose-dependent inhibitory effect; cell viability (MTS assay) (cell line AFCA007 (AF-I)): No effect
CC1=C(/C=C/C(C)=C/C=C/C(C)=C/C(=O)O)C(C)(C)CCC1 [all-trans retinoic acid, reference compound]	–	–	alpha-fetoprotein (AFP) expression [1]: up-regulation
Basic FGF: growth factor combined with PANC-1 conditioned medium	~100 fold	stimulated	–
EGF: epidermal growth factor combined with PANC-1 conditioned medium (NSDSECPLSHDGYCLHDGVCMYIEALDKYACNCVVGYIGERCQYRDLKWWELR; Epidermal growth factor; UniProt P01133 971-1023, looked up)	~100 fold	stimulated	–
